In patent US20220024900A1, “Compounds and Their Use for Reducing Uric Acid Levels” (Acquist LLC, priority 2016, published 2022):

Biological target: xanthine oxidase (Homo sapiens, UniProt P47989)
Assay: Fluorescence-based xanthine oxidase activity assay
Format: biochemical
Conditions: verbal rating

Sequence of xanthine oxidase (P47989 whole entry, species assumed): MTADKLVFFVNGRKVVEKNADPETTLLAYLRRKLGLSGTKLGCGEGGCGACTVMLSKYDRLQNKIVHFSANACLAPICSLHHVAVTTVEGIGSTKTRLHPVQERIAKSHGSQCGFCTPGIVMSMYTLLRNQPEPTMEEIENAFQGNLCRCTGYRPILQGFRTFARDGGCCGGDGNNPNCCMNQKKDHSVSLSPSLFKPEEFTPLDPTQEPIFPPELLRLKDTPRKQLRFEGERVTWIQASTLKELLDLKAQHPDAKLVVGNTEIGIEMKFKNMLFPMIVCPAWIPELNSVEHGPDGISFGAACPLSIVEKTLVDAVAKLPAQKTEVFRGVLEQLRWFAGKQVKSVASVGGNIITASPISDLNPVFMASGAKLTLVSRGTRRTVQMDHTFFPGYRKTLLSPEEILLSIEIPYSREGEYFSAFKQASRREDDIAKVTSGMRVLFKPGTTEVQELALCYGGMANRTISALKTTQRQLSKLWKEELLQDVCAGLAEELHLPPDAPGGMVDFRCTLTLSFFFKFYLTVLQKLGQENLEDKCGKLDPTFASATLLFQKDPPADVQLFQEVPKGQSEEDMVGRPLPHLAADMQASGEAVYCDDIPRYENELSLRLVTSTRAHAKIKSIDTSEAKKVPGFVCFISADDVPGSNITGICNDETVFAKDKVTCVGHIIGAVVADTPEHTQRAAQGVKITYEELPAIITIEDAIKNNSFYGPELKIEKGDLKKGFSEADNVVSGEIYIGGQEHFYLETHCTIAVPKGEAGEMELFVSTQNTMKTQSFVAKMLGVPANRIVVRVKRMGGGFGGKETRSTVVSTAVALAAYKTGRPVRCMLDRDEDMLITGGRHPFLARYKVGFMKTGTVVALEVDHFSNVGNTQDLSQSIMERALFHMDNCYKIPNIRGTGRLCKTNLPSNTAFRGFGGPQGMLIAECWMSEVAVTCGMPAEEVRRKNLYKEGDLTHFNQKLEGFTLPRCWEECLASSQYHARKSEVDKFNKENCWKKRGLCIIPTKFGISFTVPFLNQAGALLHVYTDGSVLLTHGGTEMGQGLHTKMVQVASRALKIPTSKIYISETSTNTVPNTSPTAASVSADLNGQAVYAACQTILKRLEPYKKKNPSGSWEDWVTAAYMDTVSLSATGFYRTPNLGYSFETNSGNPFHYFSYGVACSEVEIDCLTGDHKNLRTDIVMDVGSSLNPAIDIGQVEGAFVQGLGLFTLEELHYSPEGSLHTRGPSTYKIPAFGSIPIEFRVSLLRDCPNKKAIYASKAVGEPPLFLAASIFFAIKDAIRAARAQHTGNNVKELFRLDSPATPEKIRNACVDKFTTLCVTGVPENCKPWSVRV

| Structure (SMILES) | inhibition of xanthine oxidase compared to allopurinol |
| --- | --- |
| Nc1[nH]c(=O)[nH]c(=O)c1C(=O)Nc1ccc(-c2c[nH]nn2)cc1 [Formula (Ik), N-(4-(1H-1,2,3-triazol-5-yl)phenyl)-6-amino-2,4-dioxo-1,2,3,4-tetrahydropyrimidine-5-carboxamide] | particularly potent inhibitors |
| CC(C)Sc1nc(O)c(C(=O)Nc2ccc(-c3c[nH]nn3)cc2)c(=O)[nH]1 [Formula (IId), N-(4-(1H-1,2,3-triazol-5-yl)phenyl)-4-hydroxy-2-(isopropylthio)-6-oxo-1,6-dihydropyrimidine-5-carboxamide] | particularly potent inhibitors |
| O=c1[nH]c(O)c(/C(=N\O)Nc2ccc(-c3cnn[nH]3)cc2)c(=O)[nH]1 [Formula (Ic), (E)-N-(4-(1H-1,2,3-triazol-5-yl)phenyl)-N′-hydroxy-2,4,6-trioxohexahydro-pyrimidine-5-carboximidamide] | particularly potent inhibitors |
| Cn1c(=O)[nH]c(O)c(C(=N)Nc2ccc(-c3cnn[nH]3)cc2)c1=O [Formula (Ih)] | particularly potent inhibitors |
| Cn1c(O)c(C(=N)Nc2ccc(-c3cnn[nH]3)cc2)c(=O)n(C)c1=O [Formula (If), N-(4-(1H-1,2,3-triazol-5-yl)phenyl)-6-hydroxy-1,3-dimethyl-2,4-dioxo-1,2,3,4-tetrahydropyrimidine-5-carboximidamide] | particularly potent inhibitors |
| COc1nc(O)c(C(=O)Nc2ccc(-c3cnn[nH]3)cc2)c(=O)[nH]1 [Formula (IIb), N-(4-(3H-1,2,3-triazol-4-yl)phenyl)-4-hydroxy-2-methoxy-6-oxo-1,6-dihydropyrimidine-5-carboxamide] | particularly potent inhibitors |
| N=C(Nc1ccc(-c2cnn[nH]2)cc1)c1c(O)[nH]c(=O)[nH]c1=O [Formula (Ia), N-(4-(1H-1,2,3-triazol-4-yl)phenyl)-6-hydroxy-2,4-dioxo-1,2,3,4-tetrahydropyrimidine-5-carboximidamide] | particularly potent inhibitors |
| O=c1[nH]c(=O)c2c(Nc3ccc(-c4cnn[nH]4)cc3)noc2[nH]1 [Formula (VIa), 3-((4-(1H-1,2,3-triazol-5-yl)phenyl)amino)isoxazolo[5,4-d]pyrimidine-4,6(5H,7H)-dione] | particularly potent inhibitors |
| O=c1[nH]c(=O)c2c(Nc3ccc(-c4cnn[nH]4)cc3)n[nH]c2[nH]1 [Formula (VIb), 3-((4-(1H-1,2,3-triazol-5-yl)phenyl)amino)-1H-pyrazolo[3,4-d]pyrimidine-4,6(5H,7H)-dione] | particularly potent inhibitors |
| Cn1c(=O)[nH]c(O)c(C(=O)Nc2ccc(-c3cnn[nH]3)cc2)c1=O [Formula (Ig), N-(4-(1H-1,2,3-triazol-4-yl)phenyl)-2,4-dihydroxy-1-methyl-6-oxo-1,6-dihydropyrimidine-5-carboxamide] | particularly potent inhibitors |
